We go through 1 molecule from US10626148B2, “Glycopeptides conjugates and uses thereof” (priority 2015, dated 2020).

One experiment has as its target T1, NDM-1 enzyme (Klebsiella pneumoniae, UniProt C7C422).
T1 construct: made in house; host or cells: E. coli BL21 (DE3)
Put plainly: NDM-1 enzyme inhibition, nitrocefin substrate. In kind it is biochemical. The procedure: The NDM-1 was produced by E. coli BL21 (DE3) carrying pET30a-NDM-1 in LB medium. Initially, the purified NDM-1 enzyme (5 nM, HEPES buffer, pH-7.4) was supplemented with 20 μM ZnSO4 for 30 min. Next, the enzyme was pre-incubated with the inhibitor (compound 4) for 20 min prior to the initiation of the assay by the addition of the substrate (Nitrocefin, 30 μM). Assays were read in 96-well microplate format at 490 nm (absorbance) using TECAN plate reader (Infinite Pro.) at 37° C. IC50s were deduced from a plot of percent loss of activity versus inhibitor concentration.

The test system of experiment [1] is Vancomycin-resistant E. faecalis (VanA, ATCC 51575). Put plainly: MIC, micro-dilution broth, VREs. In kind it is cell-based. The settings on record: Enterococcus faecalis, ATCC51575. The procedure:
(§1) Test compounds were assayed in a micro-dilution broth format. Stock solutions were made by serially diluting the compounds using autoclaved millipore water or broth media. The antibacterial activity of the compounds was determined against gram positive bactreia like methicillin-resistant S. aureus (MRSA), vancomycin-intermediate-resistant S. aureus (VISA), vancomycin-sensitive E. faecium (VSE), vancomycin-resistant E. faecalis and vancomycin-resistant E. faecium (VRE). Antibacterial activity of dipicolyl-vancomycin conjugate conjugate (4) in combination with meropemem was determined against gram-negative bacteria such as K. pneumoniae ATCC BAA2146, clinical isolates K. pneumoniae R3949, K. pneumoniae R3934, E. coli R3336 and A. baumanii R676. Bacteria, to be tested, were grown for about 10 h in the suitable media, MRSA, VISA and gram negative bacteria were grown in Yeast-dextrose broth (about 1 g of beef extract, about 2 g of yeast extract, about 5 g of peptone and about 5 g of NaCl in about 1000 mL of sterile distilled water (pH-7)). For solid media, about 5% agar was used along with above mentioned composition. VSE and VRE were cultured in Brain Heart Infusion broth (Himedia). The bacterial samples were freeze dried and stored at −80° C. About 5 μL of these stocks were added to about 3 mL of the nutrient broth or Brain Heart Infusion broth and the culture was grown for about 6 h at about 37° C. prior to the experiments. This 6 h grown culture gives about 10^9 cfu/mL and this was determined by spread plating method. The 6 h grown culture was diluted to give effective cell concentration of about 10^5 cfu/mL which was then used for determining MIC. Compounds were serially diluted, in sterile water (2-fold dilution is employed) in a way that the working concentration was about 10 μM for MRSA, and VSE while for VRE, VISA and gram negative bacteria; it was about 100 μM. About 50 μL of these serial dilutions were added to the wells of 96 well plate followed by the addition of about 150 μL of bacterial solution. The plates were then incubated at about 37° C., 150 rpm in the incubator and O.D at 620 nm was recorded at an interval of about 24 h using TECAN (Infinite series, M200 pro) Plate Reader. Each concentration had triplicate values and the whole experiment was done at least twice and the MIC value was determined by taking the average of triplicate O.D. values for each concentration and plotting it against concentration. The data was then subjected to sigmoidal fitting.

The subject of experiment [2] is Methicillin-resistant S. aureus (ATCC 33591). Kind of experiment: MIC, micro-dilution broth, MRSA. In kind it is cell-based. Particulars: Staphylococcus aureus. As for the experimental part: as §1
Background: In broth dilution the organism is exposed to a series of concentrations in liquid medium.

For experiment [3], the system named is NDM-1 expressing Klebsiella pneumoniae R3934. Put plainly: microbe, parasite or virus in culture. In kind it is cell-based. Particulars: Klebsiella pneumoniae R3934. The procedure:
as §1
(§2) Then, the antibacterial activities of Dipicolyl-vancomycin conjugate (4) is checked in combination with meropenem against New-Delhi β-lactamase producing gram negative bacteria such as K. pneumoniae BAA2146, clinical isolates K. pneumoniae R3949, K. pneumoniae R3934, E. coli R3336 and A. baumanii R676. […] Further we have also evaluated the antibacterial activity of dipicolyl-vancomycin conjugate (4) in presence of zinc sulphate, wherein it forms dipicolyl-vancomycin-zinc complex (5).

Experiment [4] concerns NDM-1 expressing Klebsiella pneumoniae R3949. Kind of experiment: microbe, parasite or virus in culture. It is filed as cell-based. Particulars: Klebsiella pneumoniae R3949. The procedure:
as §1, §2

For experiment [5], the system named is NDM-1 expressing Escherichia coli R3336. Kind of experiment: microbe, parasite or virus in culture. Particulars: Escherichia coli R3336. In kind it is cell-based. The procedure: as §1, §2
In experiment [6] the test system is NDM-1 expressing Klebsiella pneumoniae ATCC BAA2146. Put plainly: microbe, parasite or virus in culture. In kind it is cell-based. Particulars: Klebsiella pneumoniae ATCC BAA2146. The procedure:
as §1, §2

For experiment [7], the system named is meropenem-resistant NDM-1 bacteria. Kind of experiment: Combination with meropenem against NDM-1 gram negative bacteria. It is filed as cell-based. Particulars: in combination with meropenem. The procedure: Test compounds were assayed in a micro-dilution broth format. Stock solutions were made by serially diluting the compounds using autoclaved millipore water or broth media. The antibacterial activity of the compounds was determined against gram positive bactreia like methicillin-resistant S. aureus (MRSA), vancomycin-intermediate-resistant S. aureus (VISA), vancomycin-sensitive E. faecium (VSE), vancomycin-resistant E. faecalis and vancomycin-resistant E. faecium (VRE). Antibacterial activity of dipicolyl-vancomycin conjugate conjugate (4) in combination with meropemem was determined against gram-negative bacteria such as K. pneumoniae ATCC BAA2146, clinical isolates K. pneumoniae R3949, K. pneumoniae R3934, E. coli R3336 and A. baumanii R676. Bacteria, to be tested, were grown for about 10 h in the suitable media, MRSA, VISA and gram negative bacteria were grown in Yeast-dextrose broth (about 1 g of beef extract, about 2 g of yeast extract, about 5 g of peptone and about 5 g of NaCl in about 1000 mL of sterile distilled water (pH-7)). […] This 6 h grown culture gives about 10^9 cfu/mL and this was determined by spread plating method. […] The plates were then incubated at about 37° C., 150 rpm in the incubator and O.D at 620 nm was recorded at an interval of about 24 h using TECAN (Infinite series, M200 pro) Plate Reader. Each concentration had triplicate values and the whole experiment was done at least twice and the MIC value was determined by taking the average of triplicate O.D. values for each concentration and plotting it against concentration. […]
as §2

Another experiment has as its system VRE. Kind of experiment: Cell wall biosynthesis inhibition, UDPMurNAc-pp accumulation. In kind it is cell-based. The procedure: In order to investigate whether the new installed properties of vancomycin derivative on inhibition of cell wall (peptidoglycan) biosynthesis against VRE, the accumulation of UDP-linked peptidoglycan precursor, UDP-N-acetyl-muramyl-pentadepsipeptide (UDPMurNAc-pp) was determined after treating the bacteria (VRE) with test compounds. Analysis of the cytoplasmic peptidoglycan nucleotide precursor pool was examined using VRE cells grown in 25 mL MHB. Cells were grown to an A600 nm (OD600) of 0.6 and incubated with 130 μg/mL of chloramphenicol for 15 min. Then, test compounds vancomycin (5 μM), compound 4 and physical mixture of compound 4 with zinc sulphate (5 μM) were added and incubated for another 60 min. Cells were collected and washed with sterile water to remove the antimicrobial agents and then extracted with boiling water. The cell extract was then centrifuged and the supernatant lyophilized. Then, the lyophilized powder was dissolved in 2 mL of water and pH was adjusted to 2.0 with 20% phosphoric acid. Now, the UDP-linked cell wall precursors in the solution were analyzed by RP-HPLC monitoring the UV absorbance peak at 260 nm wavelength and confirmed by HR-MS mass spectrometry.

T1 sequence (C7C422 29-270, looked up, species assumed): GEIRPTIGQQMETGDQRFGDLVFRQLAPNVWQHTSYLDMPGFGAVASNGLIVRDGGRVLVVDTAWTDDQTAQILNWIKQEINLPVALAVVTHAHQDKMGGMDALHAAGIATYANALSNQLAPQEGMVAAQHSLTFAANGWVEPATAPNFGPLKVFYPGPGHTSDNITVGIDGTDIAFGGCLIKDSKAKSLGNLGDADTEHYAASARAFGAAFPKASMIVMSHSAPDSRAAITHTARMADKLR

In general, IC50 refers to the concentration that inhibits the measured activity by half. Lower therefore signals higher potency. What is called MIC is the smallest concentration in the dilution series that meets the test's criterion for growth inhibition. For `CN[C@H](CC(C)C)C(=O)N[C@H]1C(=O)N[C@@H](CC(N)=O)C(=O)N[C@H]2C(=O)N[C@H]3C(=O)N[C@H](C(=O)N[C@H](C(=O)NCCCCCCN(Cc4ccccn4)Cc4ccccn4)c4cc(O)cc(O)c4-c4cc3ccc4O)[C@H](O)c3ccc(c(Cl)c3)Oc3cc2cc(c3O[C@H]2OC(CO)[C@H](O)C(O)C2O[C@H]2CC(C)(N)[C@H](O)C(C)O2)Oc2ccc(cc2Cl)[C@H]1O` (some centres unmarked) [Compound 4, Dipicolyl-vancomycin conjugate], at NDM-1 enzyme, the IC50 was about 6 µM. In addition, the “effect on the activity of NDM-1” value on NDM-1 enzyme (nitrocefin as substrate) is on record as “potent in-vitro dose-dependent inhibition”. Besides, the minimal inhibitory concentration (MIC) in experiment [1] is 2.5 µM; in experiment [2] it was 0.6 µM. The “MIC of Meropenem in presence of compound 4 at 12 μM” value in experiment [3] is 3.1 mg/L; in [4] it was 3.1 mg/L; in experiment [5], 12 mg/L; in experiment [6] it was 1.5 mg/L. Further, the “resensitization of meropenem-resistant NDM-1 bacteria to meropenem (synergistic activity)” value in experiment [7] is given as “able to resensitize”. Besides, the “cell wall biosynthesis inhibition (accumulation of UDPMurNAc-pp, peak at 260 nm)” value in the experiment on VRE (60 min) is recorded as “greater cell wall biosynthesis inhibition compared to vancomycin”. Besides, the “cell wall biosynthesis inhibition (accumulation of UDPMurNAc-pp)” value with VRE (in presence of Zn2+ (zinc sulphate 5 μM)) is listed as “enhanced cell wall biosynthesis inhibition”.
